Laboratory results: patent publication US20100034901A1, “ANIMAL FEED COMPOSITIONS” (priority 2006, published 2010)
Entries after “also recorded” stand apart in the source; their conditions may differ.

Columns and labels:
Duroc and Yorkshire pigs = experiment: Boron supplementation and OC-associated lameness in swine (Example 1); format: in vivo, pig
Experimental: The basal diet consisted of commercial corn-soy diet containing 10 ppm boron.
Test diet group B was fed a basal diet plus 25 mg/kg boron as sodium borate decahydrate (borax). Test diet group A was fed a basal diet plus 25 mg/kg boron as sodium borate decahydrate (borax) and 250 mg/kg ascorbic acid.
Pigs were weighed at the beginning of the study, 4 weeks later and every 3 weeks until the end of the study. Animals were scored for soundness on a 5-point scale at each weighing. (Five-point scale: 1=no soundness defects; 2=minor soundness issues but still sound enough for retention as breeding animal; 3=not sound enough for retention for breeding but still marketable; 4=unsound, likely to be rejected at slaughter; 5=severely lame, requiring euthanasia for humane reasons.) Grading was done by the caretaker and the investigator at all weighing times. An experienced independent treatment-blind rater also evaluated the soundness of each animal and the ratings he provided were compared with the ratings of the caretaker and investigator by use of Cohen's Kappa test.
The animals were housed in a modern curtain sided barn with deep straw bedding, with ad libitum access to feed and water. Waterers and feeders were on a concrete pad but the remainder of the flooring was deep straw over a ground limestone and sand base. Floor space allowances exceeded the recommendations of the Guide for the Care and Use of Agricultural Animals in Agricultural Research and Teaching, First Revised Edition, 1999. Federation of Animal Science Societies. Savoy, Ill.
The basal diet (no boron supplemented) was analysed and found to contain boron at the rate of 10 ppm which is typical for a corn-soybean meal based diet.
At the end of the study the pigs were transported to a laboratory where they were euthanized and necropsied. Six pigs in each of group B and group A were put on the control diet for 7 days at the end of the study.
At necropsy, samples of liver, heart, kidney, fat, skeletal muscle, proximal tibia, blood, and the rostral snout were retained and frozen at −40° C. prior to chemical analysis. All joints of the axial skeleton were evaluated for the presence of gross lesions of osteochondrosis and graded on a 5 point scale. (5-point scale: 1=no gross abnormalities; 2=minor imperfections in articular conformation or articular reddening present but no cartilage erosions; 3=cartilage intact but surface irregularities of the cartilage are present; 4=fissuring or erosion of articular cartilage is obvious; 5=full thickness cartilage lesions or cartilage flaps, osteochondritis dissecans obviously present).
The proximal femur (femoral head) and articular surfaces and growth plates associated with the stifle, hock, shoulder, elbow and carpus were sectioned with a band saw and approx. 0.5 to 1.0 cm sections fixed in formalin. […]
Mean joint lesion scores, growth rate and soundness scores by treatment and by factors boron and ascorbate were compared using an analysis of variance and t-test as appropriate. Soundness scores were dichotomised into binary categorical variables for lameness (soundness score>2) and for absence of defects (soundness<2), and the binary variables analysed by chi-square and logistic regression.
Tissue specimens stained with H&E were examined microscopically for the presence of lesions of osteochondrosis. […] Each tissue section was scored by a treatment-blind board-certified pathologist. […]

pig cartilage = experiment: Glycosaminoglycan study: sGAG in articular cartilage plugs of hock and elbow joints; format: in vivo; conditions: pigs fed 50 ppm boron
Experimental: Hock joints and elbow joints were obtained at necropsy from pigs in two feeding groups: one group having been fed a commercial ration supplemented with 50 mg B/kg feed and the other being fed only the standard commercial pig ration.
Cartilage plugs were harvested from the articular surfaces of 40 hock and elbow joints using a #5 (10.5 mm) cork borer. The samples were papain digested and analyzed for concentration of sulfated glycosaminoglycan (sGAG) using a spectrophotometric microplate analysis procedure adapted from Farndale, et al (1986), using a chondrotin sulfate standard. This method measures total sulfated glycosaminoglycan, most of which is chondrotin sulfate and keratan sulfate components of aggrecan. Aggrecan is the large aggregating proteoglycan of cartilage responsible for creating and maintaining the osmotic pressure of cartilage. Quanititation of sGAG concentration thus provides a measure of the weight-bearing and anti-friction properties of cartilage and is a measure of cartilage quality and durability.

sows and their litters = experiment: Sow and litter trial in a commercial swine operation during a PRRSV outbreak; format: in vivo; conditions: sows given 1 mg boron per pound BW per day
Experimental: To test the effect of boron on sows and their litters, a trial was established in a large commercial swine operation during an outbreak of porcine viral reproductive and respiratory disease (PRRSV). Boron was administered orally to a group of 51 sows individually housed in crates at the rate of 1 mg boron per pound BW per day beginning 1 week prior to farrowing and continuing until the piglets were weaned at 14 days of age. […] Boron treatment was supplied as a single daily dosing and was discontinued at weaning. All sows were fed a standard commercial sow diet.

crossbred pigs = experiment: 28-day feeding trial: phosphorus digestibility and excretion, feed conversion; format: in vivo, pig; conditions: 50 ppm Added B; 28 days; N 12 pens
Experimental: Pigs were randomly allocated to 24 pens of 6 pigs per pen in a thermoneutral controlled environment barn with steel grid flooring. Each pen was equipped with a single-hole feeder. Water was available free-choice from a nipple drinker. […] Feces were collected on the last 3 days of the study from each pen and a pooled aliquot was dried and submitted for chemical analysis. Yttrium oxide was added to the diet at 0.05% and served as a marker for phosphorus digestibility. Pig growth and feed consumption was measured at the end of the study with the pen as the experimental unit. Data was analyzed for effects of boron and calcium by univariate and multivariate analysis of variance and t-tests.

turkeys = experiment: Turkey Study 3: growth, lameness scoring, femur breaking force, cartilage indenter test; format: in vivo; conditions: for leg weakness scores (mean): 5 point scale, control 3.0; for growth response (bird weight) / growth rates: groups with boron versus groups without boron
Source text: 250 turkeys were selected at random at week 11 and divided into 5 treatment groups: 1) control, 2) ascorbate only “(VC”), 3) boron only (“B”), 4), boron and ascorbate (“B+C”), and 5) ½ rate boron and full rate ascorbate (“LoB+C”). Full rates of both boron and ascorbate were as described for study 1. At 17 weeks, all birds were weighed, scored for lameness/mobility/gait abnormality using the five point scale used in study 1, and sacrificed. The femur was dissected from each leg of each bird and subjected to an ultimate breaking force analysis. Cartilage at the femoral distal condyle was subjected to an indenter test.
For the lameness/mobility/gait abnormality scoring, three graders were used. Two of the graders were “blind” graders unaware of each turkey's grouping. The third grader was a “biased” grader aware of each turkey's grouping. Partial grading on the 5 point scale described above was allowed. FIG. 11 presents the cross-tabulation of the graders' results.

[1] = system: pigs of about 100 kg body weight; experiment: 3-NPB study in pigs with or without supplemental boron
Experimental: The pigs were evaluated for lameness daily and euthanatized on day 13 and the joints and other organs were examined.

[2] = system: sows, piglets and pigs on farms; format: in vivo; conditions: sows on 1 mg/kg body weight boron as boric acid; usual mortality for this farm about 5 to 7%
Experimental: Boron was added to the diet of sows at 1 mg/kg body weight as boric acid. […] Among a group of 95 piglets the birth to weaning mortality was 2 piglets. The usual mortality for this farm was about 5 to 7%. These piglets remained on boron 50 ppm plus ascorbate 125 ppm. One pig was euthanized and examined at a weight of about 85 pounds. […] All bones of the appendicular skeleton were sectioned on the band saw.
An Iowa farm treated a group of about 100 pigs with 50 ppm boron as boric acid. None of these pigs developed any signs of lameness or unsoundness. The farmer reported that these pigs are the most sound he has raised. The estimated previous lameness/unsoundness rate was about 25 to 30%, and zero in the test group. […] The absence of lameness and hock swelling was observed. Two pigs with hock swelling were euthanised from among the younger and older pigs not treated with boric acid. […] An older pig of about 250 pounds body weight with severe lameness in the right hock was euthanised.

[3] = boron supplementation 50 ppm, 3-NPB none

## [B] [Boron]
Duroc and Yorkshire pigs; boron supplemented group vs unsupplemented pigs
  TBlue staining intensity (semi-quantitative measure of sGAG content of cartilage): consistently higher
Duroc and Yorkshire pigs; growing swine supplemented with boron
  joint condition vs basal diet with no supplemental boron (FIG. 1): healthier joints
Duroc and Yorkshire pigs; pigs receiving 25 ppm boron, microscopic sections of articular cartilage and growth plate
  Growth plate lesions associated with widening, found in % of tissues: 19%
Duroc and Yorkshire pigs; pigs receiving 25 ppm supplemental B, microscopic sections
  Articular cartilage lesions (necrosis, hemorrhage, infarction, or streaks), found in % of tissues: 4%
Duroc and Yorkshire pigs; supplemental boron at 25 ppm to 50 ppm, FIGS. 1, 3 and 4
  occurrence of OC in pigs: significant reduction
Pig cartilage
  sGAG concentration (dry matter basis) in the cartilage: 11050 ng/g
Sows and their litters
  litter size at birth: no effects
  piglet birth weight: no effects
Crossbred pigs
  Feed Conversion Ratio (feed/gain): 2.32
turkeys
  leg weakness scores (mean): 2.3
turkeys; boron alone, 3-point bending test of the femur
  improvement of bone strength as compared with the control: 7.8%
turkeys; week 11 to 17
  effect on femur break force (main effects analysis, FIG. 26): large effect
  growth response (bird weight) / growth rates: improved
turkeys; week 11 to 17, listed as B
  growth response (bird weight) / growth rates: significant
[1]; [3]
  Clinical Lameness Score: Normal (count of pigs): 5
  Clinical Lameness Score: Visible Lameness (count of pigs): 0
[1]; supplemental boron and no 3-NPB
  prevalence and severity of osteochondrosis lesions (shoulder, stifle, hock and elbow joints): lowest prevalence of lesions and the lowest severity

## O=C1O[C@H]([C@@H](O)CO)C(O)=C1O [ascorbate, ascorbic acid, reference compound]
turkeys
  leg weakness scores (mean): did not significantly improve
turkeys; administered in drinking water
  bone strength as measured by 3-point bending test: slightly improved bone strength
turkeys; week 11 to 17
  cartilage strength by indenter test at the femoral distal condyle (FIG. 27): statistically significant effect; also recorded: improved cartilage strength
  effect on femur break force (main effects analysis, FIG. 26): lesser effect

## OB(O)O [boric acid]
[2]
  birth to weaning mortality among a group of 95 piglets: 2 piglets
